{"source": "patent US20080044815A1", "about": "“Genetic Screen for Interaction Interface Mapping” (priority 2003, published 2008)", "origin": "cited, not measured here", "key": {"[1]": {"test_system": "embryonic neurons", "details": "Borasio et al. 1998"}, "[2]": {"test_system": "neurons", "details": "Saporito et al. 1999"}, "[3]": {"test_system": "nerve growth factor (NGF)-deprived neurons", "details": "Harris et al. 2002"}}}
{"compound": "CCSCc1ccc2c(c1)c1c3c(c4c5cc(CSCC)ccc5n5c4c1n2[C@H]1C[C@](O)(C(=O)OC)[C@]5(C)O1)CNC3=O", "note": "[CEP-1347]", "values": [{"measurement": "survival of embryonic neurons", "setting": "[1]", "result": "support the survival of embryonic neurons"}, {"measurement": "loss of neurons in vivo", "setting": "[2]", "result": "attenuate the loss of neurons in vivo"}, {"measurement": "metabolism and growth of NGF-deprived neurons", "setting": "[3]", "result": "preserve the metabolism and growth"}]}
